Reference: US7662810B2, “2-arylmethylazetidine carbapenem derivatives and preparation thereof” (Korea Research Institute of Chemical Technology, priority 2004, dated 2010)

Legend:
[1] = target: T1, Dihydropeptidase-1 (DHP-1) (Sus scrofa, UniProt P22412)
T1 sequence (P22412 17-384): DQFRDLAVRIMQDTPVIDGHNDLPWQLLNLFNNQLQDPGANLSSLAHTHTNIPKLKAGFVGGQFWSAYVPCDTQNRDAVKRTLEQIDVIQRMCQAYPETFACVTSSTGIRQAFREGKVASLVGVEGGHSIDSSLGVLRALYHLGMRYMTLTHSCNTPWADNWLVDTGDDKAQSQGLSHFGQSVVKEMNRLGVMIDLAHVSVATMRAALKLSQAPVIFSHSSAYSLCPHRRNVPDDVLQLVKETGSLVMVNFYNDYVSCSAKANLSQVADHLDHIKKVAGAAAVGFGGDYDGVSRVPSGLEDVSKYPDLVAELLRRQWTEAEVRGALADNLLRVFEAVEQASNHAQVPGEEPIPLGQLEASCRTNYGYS
Experimental: The rate of degradation of the inventive compounds by the action of DHP-1 enzyme extracted from hog kidney was determined as follow.
0.2 unit of the enzyme was allowed to react with the above solution at 30° C., and the absorbance at 299 nm of the remaining medicament was measured to determine the degradation rate. The absorbance was measured at 0, 0.5, 1, 2 and 4 hour points, and T1/2, the time when the concentration of the medicament become the half, was obtained by regression analysis.

[2] = tested on: Staphylococcus aureus 256E; assay: Measurement of Minimum Inhibitory Concentration (MIC), MRSA; type: cell-based; conditions: Staphylococcus aureus 256E
Experimental: (§1) The antibacterial activities of the compounds of the present invention prepared in the above Examples against Gram-positive and Gram-negative bacteria, MRSA and QRS were tested as follows.
(§2) Respective bacterial strains were inoculated into 3 ml of Fleisch extract broth (beef extract 1%, peptone 1%, NaCl 0.3%, Na2HPO4.12H2O 0.2%, pH 7.4-7.5. 10% horse serum was supplemented for Streptococcus pyogenes and S. facium) and cultured on a shaking incubator at 37° C. for 18 hours. About 10^4 CFU/spot of the cultured bacterial strains were inoculated onto Müller-Hinton agar plates containing serial double dilutions (final concentration of 0.002 to 100 μg/ml) of a test compound employing an automatic inoculator (Dynatech, USA), and incubated at 37° C. for 18 hours. When the incubation was completed, the minimum inhibitory concentration was determined. Meropenem (Yuhan corporation, Korea) and vancomycin (Cj Inco., Korea) were used as standard antibiotics, respectively.

[3] = tested on: Staphylococcus aureus 692E; assay: as above; type: cell-based; conditions: Staphylococcus aureus 692E
Experimental: as §1, §2

[4] = tested on: Staphylococcus aureus 693E; assay: as above; type: cell-based; conditions: Staphylococcus aureus 693E
Experimental: as §1, §2

[5] = tested on: Staphylococcus aureus 208E; assay: as above; type: cell-based; conditions: Staphylococcus aureus 208E
Experimental: as §1, §2

[6] = tested on: Staphylococcus aureus 121E; assay: as above; type: cell-based; conditions: Staphylococcus aureus 121E
Experimental: as §1, §2

[7] = tested on: Staphylococcus aureus 694E; assay: as above; type: cell-based; conditions: Staphylococcus aureus 694E
Experimental: as §1, §2

[8] = tested on: Staphylococcus aureus 88E; assay: as above; type: cell-based; conditions: Staphylococcus aureus 88E
Experimental: as §1, §2

[9] = tested on: Staphylococcus aureus 697E; assay: as above; type: cell-based; conditions: Staphylococcus aureus 697E
Experimental: as §1, §2

[10] = tested on: Staphylococcus aureus 695E; assay: as above; type: cell-based; conditions: Staphylococcus aureus 695E
Experimental: as §1, §2

[11] = tested on: Staphylococcus aureus 690E; assay: as above; type: cell-based; conditions: Staphylococcus aureus 690E
Experimental: as §1, §2

[12] = tested on: Salmonella typhimurium 179; assay: Measurement of Minimum Inhibitory Concentration (MIC); type: cell-based; conditions: Salmonella typhimurium 179
Experimental: as §1, §2

Escherichia coli DC 2 = assay: as above; type: cell-based
Experimental: as §1, §2

[13] = tested on: Klebsiella aerogenes 1522 E; assay: as above; type: cell-based
Experimental: as §1, §2

Escherichia coli 078 = assay: as above; type: cell-based
Experimental: as §1, §2

[14] = tested on: Enterobacter cloacae P 99; assay: as above; type: cell-based
Experimental: as §1, §2

[15] = tested on: Staphylococcus pyogenes 308A; assay: as above; type: cell-based; conditions: Staphylococcus pyogenes 308A
Experimental: as §1, §2

Escherichia coli TEM = assay: as above; type: cell-based; conditions: Escherichia coli TEM
Experimental: as §1, §2

Escherichia coli 1507 E = assay: as above; type: cell-based
Experimental: as §1, §2

[16] = tested on: Staphylococcus faecium MD 8b; assay: as above; type: cell-based; conditions: Staphylococcus faecium MD 8b
Experimental: as §1, §2

[17] = tested on: Staphylococcus aureus 503; assay: as above; type: cell-based
Experimental: as §1, §2

[18] = tested on: Enterobacter cloacae 1321 E; assay: as above; type: cell-based
Experimental: as §1, §2

[19] = tested on: Staphylococcus aureus 285; assay: as above; type: cell-based
Experimental: as §1, §2

[20] = tested on: Klebsiella oxytoca 1082 E; assay: as above; type: cell-based
Experimental: as §1, §2

Escherichia coli DC 0 = assay: as above; type: cell-based
Experimental: as §1, §2

[21] = tested on: Staphylococcus pyogenes 77A; assay: as above; type: cell-based; conditions: Staphylococcus pyogenes 77A
Experimental: as §1, §2

[22] = tested on: Staphylococcus epidermidis 178; assay: Measurement of Minimum Inhibitory Concentration (MIC), QRS; type: cell-based; conditions: QRS, Staphylococcus epidermidis 178
Experimental: as §1, §2

[23] = tested on: Staphylococcus aureus 241; assay: as above; type: cell-based; conditions: QRS, Staphylococcus aureus 241
Experimental: as §1, §2

[24] = tested on: Staphylococcus epidermidis 291; assay: as above; type: cell-based; conditions: QRS, Staphylococcus epidermidis 291
Experimental: as §1, §2

[25] = tested on: Staphylococcus aureus 179; assay: as above; type: cell-based; conditions: QRS, Staphylococcus aureus 179
Experimental: as §1, §2

[26] = tested on: Staphylococcus aureus 293; assay: as above; type: cell-based; conditions: QRS, Staphylococcus aureus 293
Experimental: as §1, §2

What does the source list for `C[C@H](c1ccccc1)N1CC(SC2=C(C(=O)[O-])N3C(=O)[C@H]([C@@H](C)O)[C@H]3[C@H]2C)C1.[K+]` [Exam. 21, Potassium(1R,5S,6S)-2-{1-[(1R)-1-phenylethyl]-azetidine-3-yl-thio}-6-[(1R)-1-hydroxylethyl]-1-methylcarbapen-2-em-3-carboxylate]?
Relative T1/2 [1]: 1.88; T1/2 (time when the concentration of the medicament become the half) [1]: 38.43

Which “Relative T1/2” value [1] does the source give for `CC(c1ccc(Br)cc1)N1CC(SC2=C(C(=O)[O-])N3C(=O)[C@H]([C@@H](C)O)[C@H]3[C@H]2C)C1.[K+]` (stereo partly drawn) [Exam. 24, Potassium(1R,5S,6S)-2-{1-[1-(4-bromophenyl)ethyl]-azetidine-3-yl-thio}-6-[(1R)-1-hydroxylethyl]-1-methylcarbapen-2-em-3-carboxylate] here?
Its value is 1.08.

And the “T1/2 (time when the concentration of the medicament become the half)” value [1]?
The value was 19.71.

For `COc1ccc(CN2CC(SC3=C(C(=O)[O-])N4C(=O)[C@H]([C@@H](C)O)[C@H]4[C@H]3C)C2)cc1OC.[K+]` [Exam. 17, Potassium(1R,5S,6S)-2-[1-(3,4-dimethoxybenzyl)-azetidine-3-yl-thio]-6-[(1R)-1-hydroxylethyl]-1-methylcarbapen-2-em-3-carboxylate], which “T1/2 (time when the concentration of the medicament become the half)” value [1] is on record?
The value was 27.45.

And the MIC [2]?
The MIC was 0.049 µg/mL.

And the MIC [3]?
Its MIC is 0.195 µg/mL.

And the MIC [4]?
The MIC was 0.391 µg/mL.

What about the MIC [5] of the same compound?
Its MIC is 0.049 µg/mL.

What about the MIC [6] of the same compound?
Its MIC is 0.098 µg/mL.

And the MIC [7]?
Its MIC is 0.098 µg/mL.

What about the MIC [8] of the same compound?
The MIC was 0.195 µg/mL.

What about the MIC [9] of the same compound?
Its MIC is 0.098 µg/mL.

And the MIC [10]?
The MIC was 0.098 µg/mL.

And the MIC [11]?
Its MIC is 0.781 µg/mL.

And the MIC [12]?
The MIC was 0.098 µg/mL.

What about the MIC (Escherichia coli DC 2) of the same compound?
Its MIC is 0.049 µg/mL.

What about the MIC [13] of the same compound?
Its MIC is 0.391 µg/mL.

And the MIC (Escherichia coli 078)?
The MIC was 0.098 µg/mL.

And the MIC [14]?
Its MIC is 0.781 µg/mL.

What about the MIC [15] of the same compound?
The MIC was 0.002 µg/mL.

What about the MIC (Escherichia coli TEM) of the same compound?
The MIC was 0.391 µg/mL.

And the MIC (Escherichia coli 1507 E)?
The MIC was 0.391 µg/mL.

And the MIC [16]?
The MIC was 1.563 µg/mL.

And the MIC [17]?
The MIC was 0.013 µg/mL.

And the MIC [18]?
Its MIC is 0.391 µg/mL.

What about the MIC [19] of the same compound?
The MIC was 0.025 µg/mL.

And the MIC [20]?
The MIC was 0.098 µg/mL.

And the MIC (Escherichia coli DC 0)?
Its MIC is 0.781 µg/mL.

What about the MIC [21] of the same compound?
Its MIC is 0.002 µg/mL.

What about the MIC [22] of the same compound?
Its MIC is 0.781 µg/mL.

And the MIC [23]?
The MIC was 0.195 µg/mL.

What about the MIC [24] of the same compound?
Its MIC is 1.563 µg/mL.

What about the MIC [25] of the same compound?
Its MIC is 0.098 µg/mL.

And the MIC [26]?
Its MIC is 0.391 µg/mL.

How did the “Relative T1/2” value [1] turn out when `Cc1ccc(CN2CC(SC3=C(C(=O)[O-])N4C(=O)[C@H]([C@@H](C)O)[C@H]4[C@H]3C)C2)cc1.[K+]` [Exam. 23, Potassium(1R,5S,6S)-2-[1-(4-methylbenzyl)-azetidine-3-yl-thio]-6-[(1R)-1-hydroxylethyl]-1-methylcarbapen-2-em-3-carboxylate] was run?
The value was 1.38.

What about the “T1/2 (time when the concentration of the medicament become the half)” value [1] of the same compound?
The value was 25.24.
